Laboratory results from ChEMBL document CHEMBL4627380, “Phaeosphaones: Tyrosinase Inhibitory Thiodiketopiperazines from an Endophytic Phaeosphaeria fuckelii” (J Nat Prod, 2020).
Calls of active or inactive are those of the source. The rule behind the calls is not given here.

Assays:
Mushroom tyrosinase = Mushroom tyrosinase (Agaricus bisporus, UniProt O42713+Q00024+C7FF04+C7FF05); assay: Inhibition of mushroom tyrosinase using L-Dopa as substrate preincubated for 10 mins followed by substrate addition and measured after 5 mins
Homo sapiens = organism: Homo sapiens; assay: Inhibition of alpha-glucosidase (unknown origin) at 100 uM

| SMILES | IC50 (Mushroom tyrosinase) [µM] | inhibition (Homo sapiens) |
| --- | --- | --- |
| CS[C@]1(Cc2c[nH]c3ccccc23)NC(=O)[C@](CO)(SC)N(C)C1=O [CHETOSEMINUDIN B] | 31.7 | inactive |
| CS[C@]1(Cc2c[nH]c3ccccc23)NC(=O)[C@@](SC)(C(C)C)NC1=O | – | inactive |
| CC(C)[C@@]12SS[C@]3(C(=O)N1C)[C@@H](O)[C@]1(c4c[nH]c5ccccc45)c4ccccc4N[C@@H]1N3C2=O | 28.4 | inactive |
| CO[C@@]1([C@H](SC)c2c[nH]c3ccccc23)NC(=O)[C@@](SC)(C(C)C)N(C)C1=O | 33.2 | inactive |
| CC(C)[C@@H]1NC(=O)[C@@H]2C[C@@]3(O)c4ccccc4N[C@H]3N2C1=O | – | inactive |

Next, values leading:

| IC50 (Mushroom tyrosinase) [µM] | inhibition (Homo sapiens) | SMILES |
| --- | --- | --- |
| – | inactive | CS[C@H](c1c[nH]c2ccccc12)[C@]1(O)NC(=O)[C@@](SC)(C(C)C)N(C)C1=O |
| – | inactive | CC(C)[C@]12SS[C@]([C@@H](O)c3c[nH]c4ccccc34)(CC1=O)C(=O)N2C |
| – | inactive | CO[C@]1([C@H](SC)c2c[nH]c3ccccc23)NC(=O)[C@@](SC)(C(C)C)N(C)C1=O |
